The values below come from patent US7803822B2, “Triazole derivative and use thereof” (Takeda Pharmaceutical Company Limited, priority 2005, dated 2010).

Each structure is given as a SMILES string.

In experiment [1] the target is T1, human PAR-1 (Homo sapiens, UniProt P25116).
T1 construct: expressed in transfected cells; host or cells: CHO-K1 (transformant flag/trn/CHO-K1)
T1 sequence (P25116 22-425): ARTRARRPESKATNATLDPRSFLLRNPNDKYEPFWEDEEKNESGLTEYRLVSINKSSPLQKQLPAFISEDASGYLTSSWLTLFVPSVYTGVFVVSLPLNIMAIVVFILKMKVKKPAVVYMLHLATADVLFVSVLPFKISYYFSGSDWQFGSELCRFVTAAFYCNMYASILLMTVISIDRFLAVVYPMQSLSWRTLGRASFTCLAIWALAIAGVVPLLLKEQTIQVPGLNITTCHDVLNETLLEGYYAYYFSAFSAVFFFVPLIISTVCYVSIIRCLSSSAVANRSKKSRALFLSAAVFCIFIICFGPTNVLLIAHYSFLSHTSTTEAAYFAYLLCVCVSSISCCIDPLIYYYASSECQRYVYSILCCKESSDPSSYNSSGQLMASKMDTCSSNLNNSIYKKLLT
Briefly: GTPγS binding assay with membrane fraction of human PAR-1-expressing cells. Type of experiment: biochemical. The following applies: [35S]-GTPγS binding to human PAR-1-expressing cell membrane fraction; agonist peptide SFLLRN-NH2. On the procedure:
The preparation method of the membrane fraction used for the GTPγS binding assay is shown below.
Human PAR-1-expressing cells were inoculated to an F500 flask at 1.8×10^5 cells/flask, and the cells were cultured for 2 days. The cells were detached with saline containing 0.02% EDTA. The cells were centrifuged (2000 rpm, 10 min), cell pellets were re-suspended in 12 ml of homogenate buffer (10 mM NaHCO3, 1 mM EDTA, protease inhibitor cocktail, pH 7.4), and homogenized by Polytron™. The residual cells were removed by centrifugation (2000 rpm, 10 min), and the supernatant was ultracentrifuged (Beckman Instruments 70 Ti type rotor, 30000 rpm, 1 hr) to give a membrane fraction of human PAR-1-expressing cells in a sediment, which was preserved at −80° C. and dissolved before use for an assay.
The measurement method of the GTPγS binding activity is shown below.
Then, the reaction mixture was filtered through a GF/C filter, washed 4 times with 300 μL of saline, and the radioactivity of the filter was measured by a TopCount scintillation counter.
The concentration (IC50 value) of the test compound necessary for inhibiting the GTPγS binding activity by 50% was calculated using PRISM3.0 (PraphPad software).

Experiment [2] relates to platelet rich plasma (PRP). Briefly: Platelet aggregation test (platelet rich plasma), thrombin-induced. Type of experiment: cell-based. Particulars: human PRP, thrombin at minimum concentration causing maximum aggregation; test compound concentration not given. On the procedure: Platelet Aggregation Test (Platelet Rich Plasma)
Using a syringe filled in advance with 3.8% sodium citrate solution (Chitral: Yamanouchi Pharmaceutical Co., Ltd.), its 9-fold volume of venous blood was taken from healthy volunteers. After blood sampling, the blood was centrifuged at room temperature, 2700 G for […] and 15 min to give platelet rich plasma (PRP) and platelet poor plasma (PPP), respectively. PRP was applied to an automated blood cell counter (Sysmex) to adjust the platelet count to 300,000/μL, and fibrin polymerization inhibitory peptide was added thereto to a final concentration of 4 mM. The platelet aggregation rate was measured using an aggregometer (Kowa). To be specific, 200 μL of PRP was placed in a cuvette with a microstirrer, preheated at 37° C. for 2 min, and a test compound solution (20 μL) was added. The mixture was further preheated at 37° C. for 2 min with stirring (1000 rpm), thrombin (20 μL) was added, and changes in the transmittance caused by platelet aggregation were recorded over time. Thrombin was used at a minimum concentration causing maximum aggregation, and the aggregation suppressive rate (%) was calculated from the ratio of the maximum aggregation rate with addition of test compound to the maximum aggregation rate of control group. The test compound was dissolved in dimethyl sulfoxide and diluted with saline before use.

As for `CCCc1c(C(=O)NCc2ccc(OC)cc2)nnn1-c1ccc(NC(C)=O)cc1` [Compound 2], in experiment [1], the IC50 (commonly the midpoint of a concentration-inhibition curve) turned out to be 2.1 µM. Also, the “aggregation suppressive rate (%)” value in experiment [2] turned out to be 39%.
In turn, `CCCc1c(C(=O)NC2CC2)nnn1-c1ccc(NC(C)=O)cc1` [Compound 1, 1-[4-(acetylamino)phenyl]-N-cyclopropyl-5-propyl-1H-1,2,3-triazole-4-carboxamide, reference compound] yielded a half-inhibitory concentration (IC50) in experiment [1] of 1.9 µM. The “aggregation suppressive rate (%)” value in experiment [2] was 66%.
In the case of `CCCc1c(C(=O)NCCOc2ccccc2)nnn1-c1ccc(NC(C)=O)cc1` [Compound 3], the concentration for half-maximal inhibition (IC50) in experiment [1] came out at 1.9 µM.
